Measurements reported in paper PMC4076210, “Discovery of Novel AKT Inhibitors with Enhanced Anti-Tumor Effects in Combination with the MEK Inhibitor” (PLoS ONE, 2014).
Like-named read-outs stand apart in the source and are kept apart here.

Legend:
Format in all cases: biochemical
BTK(h) = target: T1, BTK(h) (Homo sapiens, UniProt Q06187); test: Kinase panel
T1 construct: purchased Millipore KinaseProfiler

CaMKIIδ(h) = target: T2, CaMKIIδ(h) (Homo sapiens, UniProt Q13557); test: Kinase panel
T2 construct: purchased Millipore KinaseProfiler
T2 sequence (Q13557 whole entry): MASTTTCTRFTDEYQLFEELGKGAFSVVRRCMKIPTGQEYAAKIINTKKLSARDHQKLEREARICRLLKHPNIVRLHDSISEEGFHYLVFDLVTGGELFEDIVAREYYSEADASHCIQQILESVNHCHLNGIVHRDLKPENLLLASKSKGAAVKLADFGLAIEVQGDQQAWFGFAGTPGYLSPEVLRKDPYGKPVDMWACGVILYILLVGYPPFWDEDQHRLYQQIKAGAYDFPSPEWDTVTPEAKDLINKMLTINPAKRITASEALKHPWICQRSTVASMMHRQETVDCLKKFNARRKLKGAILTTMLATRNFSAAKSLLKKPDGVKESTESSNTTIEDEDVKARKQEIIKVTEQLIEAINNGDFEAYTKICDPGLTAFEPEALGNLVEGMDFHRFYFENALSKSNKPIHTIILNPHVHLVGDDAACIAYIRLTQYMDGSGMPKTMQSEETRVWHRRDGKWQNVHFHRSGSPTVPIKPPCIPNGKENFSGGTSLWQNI

CDK3/cyclinE(h) = target: T3, CDK3/cyclinE(h) (Homo sapiens, UniProt Q00526); test: Kinase panel
T3 construct: purchased Millipore KinaseProfiler

CDK5/p35(h) = target: T4, CDK5/p35(h) (Homo sapiens, UniProt Q00535); test: Kinase panel
T4 construct: purchased Millipore KinaseProfiler
T4 sequence (Q00535 whole entry): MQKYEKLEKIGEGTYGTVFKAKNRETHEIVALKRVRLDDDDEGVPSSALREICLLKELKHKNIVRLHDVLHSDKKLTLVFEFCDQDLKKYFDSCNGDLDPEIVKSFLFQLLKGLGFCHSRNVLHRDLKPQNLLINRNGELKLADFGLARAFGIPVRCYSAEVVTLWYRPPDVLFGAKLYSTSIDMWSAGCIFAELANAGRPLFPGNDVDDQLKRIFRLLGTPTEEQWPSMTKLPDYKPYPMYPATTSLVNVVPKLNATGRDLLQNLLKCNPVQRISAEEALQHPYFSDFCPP
T4 sequence (Q15078 whole entry partner): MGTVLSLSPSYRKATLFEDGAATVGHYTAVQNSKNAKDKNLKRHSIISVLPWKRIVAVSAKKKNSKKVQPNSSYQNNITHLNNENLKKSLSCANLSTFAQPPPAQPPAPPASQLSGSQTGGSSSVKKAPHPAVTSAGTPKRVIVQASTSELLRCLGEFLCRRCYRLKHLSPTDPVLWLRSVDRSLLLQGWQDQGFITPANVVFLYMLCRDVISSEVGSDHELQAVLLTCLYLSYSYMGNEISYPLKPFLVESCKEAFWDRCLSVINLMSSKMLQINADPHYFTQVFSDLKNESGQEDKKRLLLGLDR

CDK9/cyclin T1(h) = target: T5, CDK9/cyclin T1(h) (Homo sapiens, UniProt P50750); test: Kinase panel
T5 construct: purchased Millipore KinaseProfiler

cKit(V560G)(h) = target: T6, cKit(V560G)(h) (Homo sapiens, UniProt P10721, V560G); test: Kinase panel
T6 construct: purchased Millipore KinaseProfiler
T6 sequence (P10721 26-976 V560G): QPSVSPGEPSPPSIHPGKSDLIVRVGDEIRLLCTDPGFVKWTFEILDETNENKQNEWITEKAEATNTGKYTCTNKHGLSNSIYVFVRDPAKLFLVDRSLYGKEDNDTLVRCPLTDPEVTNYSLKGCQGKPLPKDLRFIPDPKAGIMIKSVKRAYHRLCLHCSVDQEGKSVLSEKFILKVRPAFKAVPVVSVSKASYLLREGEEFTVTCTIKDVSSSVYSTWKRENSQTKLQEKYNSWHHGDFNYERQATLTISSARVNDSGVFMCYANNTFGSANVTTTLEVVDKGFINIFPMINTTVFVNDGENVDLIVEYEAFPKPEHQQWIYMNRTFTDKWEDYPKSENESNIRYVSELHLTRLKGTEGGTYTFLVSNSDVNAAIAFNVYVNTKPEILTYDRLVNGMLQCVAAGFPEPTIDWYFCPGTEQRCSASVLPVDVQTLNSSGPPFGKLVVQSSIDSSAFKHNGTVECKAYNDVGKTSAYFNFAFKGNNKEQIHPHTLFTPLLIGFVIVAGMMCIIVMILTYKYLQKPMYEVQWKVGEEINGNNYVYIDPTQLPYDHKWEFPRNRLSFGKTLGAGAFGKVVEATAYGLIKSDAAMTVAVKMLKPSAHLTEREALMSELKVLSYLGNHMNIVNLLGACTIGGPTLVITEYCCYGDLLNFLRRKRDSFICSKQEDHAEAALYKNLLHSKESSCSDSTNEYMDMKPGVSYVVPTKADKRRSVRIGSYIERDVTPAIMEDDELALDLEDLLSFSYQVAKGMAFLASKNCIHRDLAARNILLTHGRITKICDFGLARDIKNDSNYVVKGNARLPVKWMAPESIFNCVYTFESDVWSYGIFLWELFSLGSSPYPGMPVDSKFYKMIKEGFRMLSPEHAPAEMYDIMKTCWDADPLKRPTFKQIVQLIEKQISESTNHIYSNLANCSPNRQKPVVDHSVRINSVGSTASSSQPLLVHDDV

EGFR(L858R)(h) = target: T7, EGFR(L858R)(h) (Homo sapiens, UniProt P00533, L858R); test: Kinase panel
T7 construct: purchased Millipore KinaseProfiler

EphB1(h) = target: T8, EphB1(h) (Homo sapiens, UniProt P54762); test: Kinase panel
T8 construct: purchased Millipore KinaseProfiler
T8 sequence (P54762 18-984): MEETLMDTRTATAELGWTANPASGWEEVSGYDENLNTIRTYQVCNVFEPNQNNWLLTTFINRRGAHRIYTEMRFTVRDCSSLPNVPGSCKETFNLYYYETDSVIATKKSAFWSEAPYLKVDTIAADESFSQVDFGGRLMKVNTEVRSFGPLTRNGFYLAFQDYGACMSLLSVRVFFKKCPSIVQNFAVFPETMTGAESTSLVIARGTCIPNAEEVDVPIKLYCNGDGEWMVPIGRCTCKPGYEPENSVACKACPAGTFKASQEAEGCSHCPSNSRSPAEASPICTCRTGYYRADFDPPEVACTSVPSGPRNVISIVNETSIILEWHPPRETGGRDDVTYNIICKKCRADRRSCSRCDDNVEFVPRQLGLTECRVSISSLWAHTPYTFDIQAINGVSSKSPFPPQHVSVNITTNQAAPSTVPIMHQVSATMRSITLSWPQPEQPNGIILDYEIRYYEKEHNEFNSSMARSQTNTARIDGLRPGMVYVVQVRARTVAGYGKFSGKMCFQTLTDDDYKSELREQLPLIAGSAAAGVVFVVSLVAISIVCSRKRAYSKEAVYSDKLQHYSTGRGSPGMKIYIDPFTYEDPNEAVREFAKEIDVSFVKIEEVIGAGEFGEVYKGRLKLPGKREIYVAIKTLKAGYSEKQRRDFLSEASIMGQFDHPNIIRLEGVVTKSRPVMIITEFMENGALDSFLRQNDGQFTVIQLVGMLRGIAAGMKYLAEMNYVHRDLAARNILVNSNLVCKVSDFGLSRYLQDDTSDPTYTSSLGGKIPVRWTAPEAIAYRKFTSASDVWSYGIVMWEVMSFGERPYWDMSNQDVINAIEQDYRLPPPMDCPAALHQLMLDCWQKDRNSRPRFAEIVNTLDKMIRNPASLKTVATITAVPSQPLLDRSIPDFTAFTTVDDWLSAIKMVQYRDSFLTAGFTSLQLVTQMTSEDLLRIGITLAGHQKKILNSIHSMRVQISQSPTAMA

FGFR1(V561M)(h) = target: T9, FGFR1(V561M)(h) (Homo sapiens, UniProt P11362, V561M); test: Kinase panel
T9 construct: purchased Millipore KinaseProfiler

Fyn(h) = target: T10, Fyn(h) (Homo sapiens, UniProt P06241); test: Kinase panel
T10 construct: purchased Millipore KinaseProfiler
T10 sequence (P06241 whole entry): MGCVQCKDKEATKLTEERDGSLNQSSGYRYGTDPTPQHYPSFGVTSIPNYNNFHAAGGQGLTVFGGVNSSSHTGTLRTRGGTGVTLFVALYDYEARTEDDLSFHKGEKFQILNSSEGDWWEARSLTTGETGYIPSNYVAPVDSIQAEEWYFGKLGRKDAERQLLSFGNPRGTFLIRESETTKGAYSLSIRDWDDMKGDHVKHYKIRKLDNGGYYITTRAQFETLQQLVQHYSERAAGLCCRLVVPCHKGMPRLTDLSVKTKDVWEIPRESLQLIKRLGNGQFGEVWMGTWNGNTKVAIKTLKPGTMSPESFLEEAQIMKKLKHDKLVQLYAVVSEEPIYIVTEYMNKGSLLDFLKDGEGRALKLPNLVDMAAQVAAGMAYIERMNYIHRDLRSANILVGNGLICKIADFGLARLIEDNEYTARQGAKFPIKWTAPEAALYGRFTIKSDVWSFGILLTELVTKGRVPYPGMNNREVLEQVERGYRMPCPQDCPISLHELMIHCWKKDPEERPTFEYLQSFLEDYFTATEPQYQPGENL

MKK4(m) = target: T11, MKK4(m) (Mus musculus, UniProt P47809); test: Kinase panel
T11 construct: purchased Millipore KinaseProfiler
T11 sequence (P47809 2-397 limits assumed): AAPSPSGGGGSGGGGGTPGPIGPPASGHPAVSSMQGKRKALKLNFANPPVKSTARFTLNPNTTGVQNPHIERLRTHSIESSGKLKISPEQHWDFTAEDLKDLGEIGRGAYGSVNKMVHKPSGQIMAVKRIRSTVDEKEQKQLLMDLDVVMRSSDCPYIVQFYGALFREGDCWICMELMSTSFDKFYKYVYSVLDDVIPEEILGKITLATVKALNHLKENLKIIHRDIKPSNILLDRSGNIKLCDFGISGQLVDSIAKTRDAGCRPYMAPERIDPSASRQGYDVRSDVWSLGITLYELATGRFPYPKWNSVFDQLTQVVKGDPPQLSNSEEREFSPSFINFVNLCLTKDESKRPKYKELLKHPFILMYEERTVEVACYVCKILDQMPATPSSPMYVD

Pim-2(h) = target: T12, Pim-2(h) (Homo sapiens, UniProt Q9P1W9); test: Kinase panel
T12 construct: purchased Millipore KinaseProfiler
T12 sequence (Q9P1W9 whole entry): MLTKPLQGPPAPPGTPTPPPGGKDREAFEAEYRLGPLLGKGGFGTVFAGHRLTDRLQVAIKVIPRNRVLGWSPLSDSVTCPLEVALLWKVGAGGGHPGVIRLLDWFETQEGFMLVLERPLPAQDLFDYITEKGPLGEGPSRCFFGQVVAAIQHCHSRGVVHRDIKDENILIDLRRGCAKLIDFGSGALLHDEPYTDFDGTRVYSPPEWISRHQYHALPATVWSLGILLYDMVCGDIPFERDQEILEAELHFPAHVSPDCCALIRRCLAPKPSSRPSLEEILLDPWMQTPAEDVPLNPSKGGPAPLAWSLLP

Plk3(h) = target: T13, Plk3(h) (Homo sapiens, UniProt Q9H4B4); test: Kinase panel
T13 construct: purchased Millipore KinaseProfiler
T13 sequence (Q9H4B4 whole entry): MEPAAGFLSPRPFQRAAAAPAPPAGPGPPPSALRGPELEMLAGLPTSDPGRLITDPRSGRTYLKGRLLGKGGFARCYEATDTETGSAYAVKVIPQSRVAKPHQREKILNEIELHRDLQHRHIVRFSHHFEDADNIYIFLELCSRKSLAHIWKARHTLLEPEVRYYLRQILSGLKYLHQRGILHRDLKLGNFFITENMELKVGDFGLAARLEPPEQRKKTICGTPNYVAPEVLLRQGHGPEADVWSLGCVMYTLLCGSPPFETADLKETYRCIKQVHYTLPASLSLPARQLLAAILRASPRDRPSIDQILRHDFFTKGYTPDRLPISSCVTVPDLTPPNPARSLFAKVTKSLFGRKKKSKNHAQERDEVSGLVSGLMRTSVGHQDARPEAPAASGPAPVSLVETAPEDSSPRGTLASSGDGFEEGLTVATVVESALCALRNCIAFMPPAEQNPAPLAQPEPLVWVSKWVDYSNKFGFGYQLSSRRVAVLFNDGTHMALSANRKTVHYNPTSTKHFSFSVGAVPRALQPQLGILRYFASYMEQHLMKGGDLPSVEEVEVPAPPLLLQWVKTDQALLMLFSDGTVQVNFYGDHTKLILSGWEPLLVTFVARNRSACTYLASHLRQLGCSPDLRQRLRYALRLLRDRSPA

Ret (V804L)(h) = target: T14, Ret (V804L)(h) (Homo sapiens, UniProt P07949, V804L); test: Kinase panel
T14 construct: purchased Millipore KinaseProfiler
T14 sequence (P07949 29-1114 V804L): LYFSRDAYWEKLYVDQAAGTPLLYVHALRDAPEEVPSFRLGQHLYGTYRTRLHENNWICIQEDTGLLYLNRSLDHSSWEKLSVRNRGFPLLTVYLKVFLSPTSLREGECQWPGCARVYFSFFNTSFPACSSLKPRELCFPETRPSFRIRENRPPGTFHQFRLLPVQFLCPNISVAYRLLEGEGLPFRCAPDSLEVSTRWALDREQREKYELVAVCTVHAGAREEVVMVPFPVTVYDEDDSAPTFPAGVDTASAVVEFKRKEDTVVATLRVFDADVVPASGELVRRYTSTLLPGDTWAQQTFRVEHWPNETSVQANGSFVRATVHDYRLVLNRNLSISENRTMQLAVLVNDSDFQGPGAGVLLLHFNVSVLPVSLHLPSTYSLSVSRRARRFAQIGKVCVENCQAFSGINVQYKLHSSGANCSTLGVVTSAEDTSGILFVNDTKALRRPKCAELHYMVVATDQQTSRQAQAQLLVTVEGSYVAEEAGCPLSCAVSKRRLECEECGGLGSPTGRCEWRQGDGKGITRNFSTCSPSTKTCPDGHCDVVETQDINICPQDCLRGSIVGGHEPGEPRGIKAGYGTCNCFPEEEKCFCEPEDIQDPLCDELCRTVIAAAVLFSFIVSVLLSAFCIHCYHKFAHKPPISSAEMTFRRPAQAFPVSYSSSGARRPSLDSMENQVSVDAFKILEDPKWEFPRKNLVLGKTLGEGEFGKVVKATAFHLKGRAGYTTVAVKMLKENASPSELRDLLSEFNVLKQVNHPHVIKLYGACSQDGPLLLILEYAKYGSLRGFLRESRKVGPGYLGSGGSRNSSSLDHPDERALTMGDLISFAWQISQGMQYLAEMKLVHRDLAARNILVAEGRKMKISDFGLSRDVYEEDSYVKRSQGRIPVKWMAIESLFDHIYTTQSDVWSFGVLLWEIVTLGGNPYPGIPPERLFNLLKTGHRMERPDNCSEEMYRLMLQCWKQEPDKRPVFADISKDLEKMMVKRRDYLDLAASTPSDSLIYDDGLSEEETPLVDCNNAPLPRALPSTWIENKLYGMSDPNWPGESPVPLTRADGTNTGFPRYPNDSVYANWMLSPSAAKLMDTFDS

TSSK2(h) = target: T15, TSSK2(h) (Homo sapiens, UniProt Q96PF2); test: Kinase panel
T15 construct: purchased Millipore KinaseProfiler
T15 sequence (Q96PF2 1-358): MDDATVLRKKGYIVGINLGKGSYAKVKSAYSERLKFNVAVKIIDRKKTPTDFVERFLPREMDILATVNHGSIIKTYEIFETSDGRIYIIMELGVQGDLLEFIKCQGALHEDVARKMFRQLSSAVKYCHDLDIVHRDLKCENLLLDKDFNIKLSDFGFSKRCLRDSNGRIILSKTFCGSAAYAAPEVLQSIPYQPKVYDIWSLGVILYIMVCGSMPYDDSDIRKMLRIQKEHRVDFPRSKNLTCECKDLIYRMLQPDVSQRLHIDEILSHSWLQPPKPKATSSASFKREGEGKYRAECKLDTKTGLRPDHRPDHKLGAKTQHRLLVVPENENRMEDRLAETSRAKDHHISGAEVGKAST

PKCα = PKCα (Homo sapiens, UniProt P17252); test: Kinase IC50 assay

Work on `Cn1ncc(Cl)c1-c1cc(C(=O)N[C@H](CN)Cc2ccc(F)c(F)c2)oc1Cl` [GSK2141795] yielded an inhibition at 0.5 µM (BTK(h); 0.5 µM, read-out: % Inhibition) of 7%, an inhibition at 10 µM (BTK(h); 10 µM, read-out: % Inhibition) of 6% and an inhibition at 0.5 µM (CaMKIIδ(h); 0.5 µM, read-out: % Inhibition) of 53%. The inhibition at 10 µM (CaMKIIδ(h); 10 µM, read-out: % Inhibition) was 94%, the inhibition at 0.5 µM (CDK3/cyclinE(h); 0.5 µM, read-out: % Inhibition) was -13% and the inhibition at 10 µM (CDK3/cyclinE(h); 10 µM, read-out: % Inhibition) was 30%. It also gave an inhibition at 0.5 µM (CDK5/p35(h); 0.5 µM, read-out: % Inhibition) of -14%, an inhibition at 10 µM (CDK5/p35(h); 10 µM, read-out: % Inhibition) of 32% and an inhibition at 0.5 µM (CDK9/cyclin T1(h); 0.5 µM, read-out: % Inhibition) of 15%. The inhibition at 10 µM (CDK9/cyclin T1(h); 10 µM, read-out: % Inhibition) was 72%, the inhibition at 0.5 µM (cKit(V560G)(h); 0.5 µM, read-out: % Inhibition) was -25% and the inhibition at 10 µM (cKit(V560G)(h); 10 µM, read-out: % Inhibition) was 16%. The inhibition at 0.5 µM (EGFR(L858R)(h); 0.5 µM, read-out: % Inhibition) was 3%, the inhibition at 10 µM (EGFR(L858R)(h); 10 µM, read-out: % Inhibition) was 24% and the inhibition at 0.5 µM (EphB1(h); 0.5 µM, read-out: % Inhibition) was -5%. For the same molecule, the inhibition at 10 µM (EphB1(h); 10 µM, read-out: % Inhibition) was -5%, the inhibition at 0.5 µM (FGFR1(V561M)(h); 0.5 µM, read-out: % Inhibition) was 15% and the inhibition at 10 µM (FGFR1(V561M)(h); 10 µM, read-out: % Inhibition) was 36%. It also gave an inhibition at 0.5 µM (Fyn(h); 0.5 µM, read-out: % Inhibition) of -8%, an inhibition at 10 µM (Fyn(h); 10 µM, read-out: % Inhibition) of 10% and an inhibition at 0.5 µM (MKK4(m); 0.5 µM, read-out: % Inhibition) of 8%. The inhibition at 10 µM (MKK4(m); 10 µM, read-out: % Inhibition) was 36%, the inhibition at 0.5 µM (Pim-2(h); 0.5 µM, read-out: % Inhibition) was -7% and the inhibition at 10 µM (Pim-2(h); 10 µM, read-out: % Inhibition) was 9%. It also gave an inhibition at 0.5 µM (Plk3(h); 0.5 µM, read-out: % Inhibition) of -7%, an inhibition at 10 µM (Plk3(h); 10 µM, read-out: % Inhibition) of 59% and an inhibition at 0.5 µM (Ret (V804L)(h); 0.5 µM, read-out: % Inhibition) of 4%. For the same molecule, the inhibition at 10 µM (Ret (V804L)(h); 10 µM, read-out: % Inhibition) was 21%, the inhibition at 0.5 µM (TSSK2(h); 0.5 µM, read-out: % Inhibition) was 7% and the inhibition at 10 µM (TSSK2(h); 10 µM, read-out: % Inhibition) was 53%. The IC50 (PKCα) was over 1000 nM.
For `Cn1ncc(Cl)c1-c1cc(C(=O)N[C@H](CN)Cc2cccc(F)c2)sc1Cl` [GSK2110183], the inhibition at 0.5 µM (BTK(h)) was 2%, the inhibition at 10 µM (BTK(h)) was 4% and the inhibition at 0.5 µM (CaMKIIδ(h)) was -20%. For the same molecule, the inhibition at 10 µM (CaMKIIδ(h)) was 12%, the inhibition at 0.5 µM (CDK3/cyclinE(h)) was 0% and the inhibition at 10 µM (CDK3/cyclinE(h)) was 20%. The inhibition at 0.5 µM (CDK5/p35(h)) was -10%, the inhibition at 10 µM (CDK5/p35(h)) was 17% and the inhibition at 0.5 µM (CDK9/cyclin T1(h)) was 0%. The inhibition at 10 µM (CDK9/cyclin T1(h)) was 48%, the inhibition at 0.5 µM (cKit(V560G)(h)) was -6% and the inhibition at 10 µM (cKit(V560G)(h)) was 4%. The inhibition at 0.5 µM (EGFR(L858R)(h)) was 3%, the inhibition at 10 µM (EGFR(L858R)(h)) was 15% and the inhibition at 0.5 µM (EphB1(h)) was -2%. For the same molecule, the inhibition at 10 µM (EphB1(h)) was -4%, the inhibition at 0.5 µM (FGFR1(V561M)(h)) was -4% and the inhibition at 10 µM (FGFR1(V561M)(h)) was 16%. For the same molecule, the inhibition at 0.5 µM (Fyn(h)) was -3%, the inhibition at 10 µM (Fyn(h)) was 12% and the inhibition at 0.5 µM (MKK4(m)) was 25%. It also gave an inhibition at 10 µM (MKK4(m)) of 57%, an inhibition at 0.5 µM (Pim-2(h)) of 5% and an inhibition at 10 µM (Pim-2(h)) of 35%. The inhibition at 0.5 µM (Plk3(h)) was -3%, the inhibition at 10 µM (Plk3(h)) was 16% and the inhibition at 0.5 µM (Ret (V804L)(h)) was -5%. It also gave an inhibition at 10 µM (Ret (V804L)(h)) of 16%, an inhibition at 0.5 µM (TSSK2(h)) of 4% and an inhibition at 10 µM (TSSK2(h)) of 44%. For the same molecule, the IC50 (PKCα) was over 1000 nM.
